Measured values from ChEMBL document CHEMBL1143113, “Design and synthesis of 4-[(s-triazin-2-ylamino)methyl]-N-(2-aminophenyl)-benzamides and their analogues as a novel class of histone deacetylase inhibitors” (Bioorg Med Chem Lett, 2008).
pEC50, pIC50: −log10 of the molar value. Activity calls are given as the source filed them. The calls are words filed in the database; no cut-off is given here.

Tested on: not listed separately
Experiment: Induction of histone H4 acetylation in human […]
Assay type: functional, cell-based
Details: not given

SMILES	pEC50
Nc1nc(NCc2ccc(C(=O)Nc3ccccc3N)cc2)nc(NC2Cc3ccccc3C2)n1	6.00
Nc1ccccc1NC(=O)c1ccc(CNc2nc(NC3CC3)nc(NC3Cc4ccccc4C3)n2)cc1	6.00
Nc1nc(NCc2ccc(C(=O)Nc3ccccc3N)cc2)nc(N2CCOCC2)n1	5.30
Nc1nc(NCCc2ccccc2)nc(NCc2ccc(C(=O)Nc3ccccc3N)cc2)n1	6.00
Nc1nc(NCc2ccc(C(=O)Nc3ccccc3N)cc2)nc(N2Cc3ccccc3C2)n1	6.00
Nc1nc(NCc2ccc(C(=O)Nc3ccccc3N)cc2)nc(N2CCc3ccccc32)n1	6.00
Nc1ccccc1NC(=O)c1ccc(CNc2nc(NCCN3CCOCC3)nc(NC3Cc4ccccc4C3)n2)cc1	6.00
Nc1nc(NCc2ccc(C(=O)Nc3ccccc3N)cc2)nc(NC2CCCC2)n1	6.10
Nc1ccccc1NC(=O)c1ccc(CNc2nc(NC3Cc4ccccc4C3)nc(N3CCOCC3)n2)cc1	6.00

Molecular target: T1, Histone deacetylase 1 (Homo sapiens, UniProt Q13547)
Experiment: Activity against HDAC1
Details: not given

T1 sequence (Q13547 whole entry): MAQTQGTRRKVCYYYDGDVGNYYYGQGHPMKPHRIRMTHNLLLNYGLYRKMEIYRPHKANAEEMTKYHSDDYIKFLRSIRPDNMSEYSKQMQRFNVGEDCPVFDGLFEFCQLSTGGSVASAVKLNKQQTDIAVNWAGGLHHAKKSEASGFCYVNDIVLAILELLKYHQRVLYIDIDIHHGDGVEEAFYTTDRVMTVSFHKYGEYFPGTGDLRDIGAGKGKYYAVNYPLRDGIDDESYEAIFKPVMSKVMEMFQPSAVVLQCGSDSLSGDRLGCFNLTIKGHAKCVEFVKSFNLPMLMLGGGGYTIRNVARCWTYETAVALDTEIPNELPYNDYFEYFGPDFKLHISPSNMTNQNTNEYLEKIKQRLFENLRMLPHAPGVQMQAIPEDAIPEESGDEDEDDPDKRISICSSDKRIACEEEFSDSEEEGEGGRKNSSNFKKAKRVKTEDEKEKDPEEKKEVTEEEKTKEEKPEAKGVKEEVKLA

SMILES	Activity
Nc1nc(NCc2ccc(C(=O)Nc3ccccc3N)cc2)nc(NC2Cc3ccccc3C2)n1	Active
Nc1nc(NCc2ccc(C(=O)Nc3ccccc3N)cc2)nc(N2CCOCC2)n1	Active
Nc1ccccc1NC(=O)c1ccc(CNc2nc(NCCN3CCOCC3)nc(NC3Cc4ccccc4C3)n2)cc1	Active
Nc1nc(NCc2ccc(C(=O)Nc3ccccc3N)cc2)nc(NC2CCCC2)n1	Active

Molecular target: T1, Histone deacetylase 1
Experiment: Inhibition of human recombinant HDAC1
Details: not given

SMILES	pIC50
COc1cccc(NCc2ccc(C(=O)Nc3ccccc3N)cc2)n1	7.00
Nc1nc(NCc2ccc(C(=O)Nc3ccccc3N)cc2)nc(NC2Cc3ccccc3C2)n1	6.70
Nc1ccccc1NC(=O)c1ccc(CNc2nc(NC3CC3)nc(NC3Cc4ccccc4C3)n2)cc1	7.52
Nc1nc(NCc2ccc(C(=O)Nc3ccccc3N)cc2)nc(N2CCOCC2)n1	6.70
COc1cc(OC)nc(NCc2ccc(C(=O)Nc3ccccc3N)cc2)n1	7.00
Nc1nc(NCCc2ccccc2)nc(NCc2ccc(C(=O)Nc3ccccc3N)cc2)n1	7.00
Nc1nc(NCc2ccc(C(=O)Nc3ccccc3N)cc2)nc(N2Cc3ccccc3C2)n1	7.40
Nc1nc(NCc2ccc(C(=O)Nc3ccccc3N)cc2)nc(N2CCc3ccccc32)n1	7.00
Nc1ccccc1NC(=O)c1ccc(CNc2nc(NCCN3CCOCC3)nc(NC3Cc4ccccc4C3)n2)cc1	7.15
Nc1nc(NCc2ccc(C(=O)Nc3ccccc3N)cc2)nc(NC2CCCC2)n1	6.70
Nc1ccccc1NC(=O)c1ccc(CNc2nc(NC3Cc4ccccc4C3)nc(N3CCOCC3)n2)cc1	7.10

Tested on: HCT-116
Experiment: Antitumor activity in human HCT116 tumor bearing mouse at 20 mg/kg/day, ip after 2 weeks
Assay type: functional
Details: HCT-116, ip, 336 h, route intraperitoneal

SMILES	inhibition in vivo at 20 mg/kg/day [%]
Nc1ccccc1NC(=O)c1ccc(CNc2nc(NCCN3CCOCC3)nc(NC3Cc4ccccc4C3)n2)cc1	49

Molecular target: Histone deacetylase 3 (Homo sapiens) (UniProt O15379)
Experiment: Activity against HDAC3
Details: not given

Histone deacetylase 3 (Homo sapiens), sequence (O15379 whole entry): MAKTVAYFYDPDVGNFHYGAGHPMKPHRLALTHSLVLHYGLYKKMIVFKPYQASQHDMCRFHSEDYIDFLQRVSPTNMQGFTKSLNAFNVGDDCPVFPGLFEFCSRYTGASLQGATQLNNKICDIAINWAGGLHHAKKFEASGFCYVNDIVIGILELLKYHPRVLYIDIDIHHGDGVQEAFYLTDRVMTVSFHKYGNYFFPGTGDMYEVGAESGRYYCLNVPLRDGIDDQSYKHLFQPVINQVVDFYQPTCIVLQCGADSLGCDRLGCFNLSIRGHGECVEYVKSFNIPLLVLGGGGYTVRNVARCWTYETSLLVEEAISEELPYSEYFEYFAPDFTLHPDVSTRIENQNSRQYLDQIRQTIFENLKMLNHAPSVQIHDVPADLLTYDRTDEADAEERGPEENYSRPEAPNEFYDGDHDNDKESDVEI

SMILES	Activity
Nc1nc(NCc2ccc(C(=O)Nc3ccccc3N)cc2)nc(NC2Cc3ccccc3C2)n1	Active
Nc1nc(NCc2ccc(C(=O)Nc3ccccc3N)cc2)nc(N2CCOCC2)n1	Active
Nc1ccccc1NC(=O)c1ccc(CNc2nc(NCCN3CCOCC3)nc(NC3Cc4ccccc4C3)n2)cc1	Active
Nc1nc(NCc2ccc(C(=O)Nc3ccccc3N)cc2)nc(NC2CCCC2)n1	Active

Molecular target: T2, Histone deacetylase 7 (Homo sapiens) (UniProt Q8WUI4)
T2 sequence (whole entry): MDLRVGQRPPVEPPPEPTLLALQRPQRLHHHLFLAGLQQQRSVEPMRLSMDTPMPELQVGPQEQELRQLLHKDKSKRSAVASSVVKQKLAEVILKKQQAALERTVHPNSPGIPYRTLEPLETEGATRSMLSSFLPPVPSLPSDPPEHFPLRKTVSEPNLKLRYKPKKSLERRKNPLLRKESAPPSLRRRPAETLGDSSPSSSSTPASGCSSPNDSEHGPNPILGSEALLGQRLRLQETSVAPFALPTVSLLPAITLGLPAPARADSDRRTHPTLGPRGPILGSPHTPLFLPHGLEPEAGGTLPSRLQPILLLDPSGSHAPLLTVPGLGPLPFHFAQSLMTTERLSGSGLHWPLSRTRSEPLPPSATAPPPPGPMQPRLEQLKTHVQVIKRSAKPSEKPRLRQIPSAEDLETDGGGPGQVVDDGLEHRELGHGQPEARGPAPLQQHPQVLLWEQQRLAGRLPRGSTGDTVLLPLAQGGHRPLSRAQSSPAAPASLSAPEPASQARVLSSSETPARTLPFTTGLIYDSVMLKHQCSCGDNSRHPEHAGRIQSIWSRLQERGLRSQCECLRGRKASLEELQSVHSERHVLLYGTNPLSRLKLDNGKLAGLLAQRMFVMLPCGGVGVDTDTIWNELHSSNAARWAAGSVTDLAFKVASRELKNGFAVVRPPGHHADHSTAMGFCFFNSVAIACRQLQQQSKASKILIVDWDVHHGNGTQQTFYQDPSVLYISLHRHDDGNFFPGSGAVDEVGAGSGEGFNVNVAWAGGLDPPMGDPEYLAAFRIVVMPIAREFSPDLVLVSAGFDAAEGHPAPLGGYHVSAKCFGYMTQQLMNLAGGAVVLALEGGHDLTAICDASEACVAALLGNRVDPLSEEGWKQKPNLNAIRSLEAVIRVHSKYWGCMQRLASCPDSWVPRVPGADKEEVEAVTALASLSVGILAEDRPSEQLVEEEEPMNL
Experiment: Activity against HDAC7
Details: not given

SMILES	Activity
Nc1nc(NCc2ccc(C(=O)Nc3ccccc3N)cc2)nc(NC2Cc3ccccc3C2)n1	inactive
Nc1nc(NCc2ccc(C(=O)Nc3ccccc3N)cc2)nc(N2CCOCC2)n1	inactive
Nc1ccccc1NC(=O)c1ccc(CNc2nc(NCCN3CCOCC3)nc(NC3Cc4ccccc4C3)n2)cc1	inactive
Nc1nc(NCc2ccc(C(=O)Nc3ccccc3N)cc2)nc(NC2CCCC2)n1	inactive

Tested on: HMEC
Experiment: Cytotoxicity against human HMEC cells by MTT assay
Assay type: cell-based
Details: not given

SMILES	pIC50
Nc1nc(NCc2ccc(C(=O)Nc3ccccc3N)cc2)nc(NC2Cc3ccccc3C2)n1	5.10
Nc1ccccc1NC(=O)c1ccc(CNc2nc(NC3CC3)nc(NC3Cc4ccccc4C3)n2)cc1	4.74
Nc1nc(NCc2ccc(C(=O)Nc3ccccc3N)cc2)nc(N2CCOCC2)n1	< 4.40
Nc1nc(NCCc2ccccc2)nc(NCc2ccc(C(=O)Nc3ccccc3N)cc2)n1	4.68
Nc1nc(NCc2ccc(C(=O)Nc3ccccc3N)cc2)nc(N2Cc3ccccc3C2)n1	< 4.30
Nc1nc(NCc2ccc(C(=O)Nc3ccccc3N)cc2)nc(N2CCc3ccccc32)n1	5.00
Nc1ccccc1NC(=O)c1ccc(CNc2nc(NCCN3CCOCC3)nc(NC3Cc4ccccc4C3)n2)cc1	4.80
Nc1nc(NCc2ccc(C(=O)Nc3ccccc3N)cc2)nc(NC2CCCC2)n1	4.96
Nc1ccccc1NC(=O)c1ccc(CNc2nc(NC3Cc4ccccc4C3)nc(N3CCOCC3)n2)cc1	< 4.30

Tested on: HCT-116
Experiment: Antitumor activity in human HCT116 tumor bearing mouse at 40 mg/kg/day, ip after 2 weeks
Assay type: functional
Details: HCT-116, ip, 336 h, route intraperitoneal

SMILES	inhibition in vivo at 40 mg/kg/day [%]
Nc1nc(NCc2ccc(C(=O)Nc3ccccc3N)cc2)nc(N2CCOCC2)n1	50
Nc1nc(NCc2ccc(C(=O)Nc3ccccc3N)cc2)nc(NC2CCCC2)n1	50

Tested on: HCT-116
Experiment: Cytotoxicity against human HCT116 cells by MTT assay
Assay type: functional, cell-based
Details: not given

SMILES	pIC50
COc1cccc(NCc2ccc(C(=O)Nc3ccccc3N)cc2)n1	6.10
Nc1nc(NCc2ccc(C(=O)Nc3ccccc3N)cc2)nc(NC2Cc3ccccc3C2)n1	6.22
Nc1ccccc1NC(=O)c1ccc(CNc2nc(NC3CC3)nc(NC3Cc4ccccc4C3)n2)cc1	6.00
Nc1nc(NCc2ccc(C(=O)Nc3ccccc3N)cc2)nc(N2CCOCC2)n1	6.10
COc1cc(OC)nc(NCc2ccc(C(=O)Nc3ccccc3N)cc2)n1	6.22
Nc1nc(NCCc2ccccc2)nc(NCc2ccc(C(=O)Nc3ccccc3N)cc2)n1	6.52
Nc1nc(NCc2ccc(C(=O)Nc3ccccc3N)cc2)nc(N2Cc3ccccc3C2)n1	6.30
Nc1nc(NCc2ccc(C(=O)Nc3ccccc3N)cc2)nc(N2CCc3ccccc32)n1	6.10
Nc1ccccc1NC(=O)c1ccc(CNc2nc(NCCN3CCOCC3)nc(NC3Cc4ccccc4C3)n2)cc1	6.22
Nc1nc(NCc2ccc(C(=O)Nc3ccccc3N)cc2)nc(NC2CCCC2)n1	6.15
Nc1ccccc1NC(=O)c1ccc(CNc2nc(NC3Cc4ccccc4C3)nc(N3CCOCC3)n2)cc1	5.70

Molecular target: Histone deacetylase 4 (Homo sapiens) (UniProt P56524)
Experiment: Activity against HDAC4
Details: not given

Histone deacetylase 4 (Homo sapiens), sequence (P56524 whole entry): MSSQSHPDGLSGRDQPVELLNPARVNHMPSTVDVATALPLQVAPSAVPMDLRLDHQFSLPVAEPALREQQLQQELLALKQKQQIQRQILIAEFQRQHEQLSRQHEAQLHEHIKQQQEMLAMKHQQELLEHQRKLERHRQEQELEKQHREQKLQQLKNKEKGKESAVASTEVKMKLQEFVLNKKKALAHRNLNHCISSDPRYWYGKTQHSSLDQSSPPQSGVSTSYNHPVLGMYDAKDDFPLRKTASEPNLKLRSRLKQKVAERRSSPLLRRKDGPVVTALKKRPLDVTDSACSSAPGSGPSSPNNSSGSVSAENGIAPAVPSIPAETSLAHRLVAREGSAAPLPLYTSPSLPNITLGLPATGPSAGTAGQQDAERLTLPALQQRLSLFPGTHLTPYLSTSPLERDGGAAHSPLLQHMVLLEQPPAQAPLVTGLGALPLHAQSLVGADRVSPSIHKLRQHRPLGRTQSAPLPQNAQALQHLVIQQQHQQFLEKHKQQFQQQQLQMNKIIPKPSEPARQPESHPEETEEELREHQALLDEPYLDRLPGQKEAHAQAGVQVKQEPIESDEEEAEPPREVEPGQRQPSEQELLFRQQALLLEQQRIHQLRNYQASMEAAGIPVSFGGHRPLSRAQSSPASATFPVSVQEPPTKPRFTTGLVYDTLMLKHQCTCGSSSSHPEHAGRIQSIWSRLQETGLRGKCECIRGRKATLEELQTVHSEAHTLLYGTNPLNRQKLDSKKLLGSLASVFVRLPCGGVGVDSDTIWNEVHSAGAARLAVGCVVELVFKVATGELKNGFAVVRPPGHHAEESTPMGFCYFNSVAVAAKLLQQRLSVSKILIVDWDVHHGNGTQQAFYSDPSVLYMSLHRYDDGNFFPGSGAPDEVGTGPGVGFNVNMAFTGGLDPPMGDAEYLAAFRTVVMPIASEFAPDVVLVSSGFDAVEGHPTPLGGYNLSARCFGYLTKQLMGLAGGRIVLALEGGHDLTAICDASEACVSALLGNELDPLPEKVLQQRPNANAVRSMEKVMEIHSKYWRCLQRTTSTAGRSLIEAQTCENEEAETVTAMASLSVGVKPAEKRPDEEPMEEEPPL

SMILES	Activity
Nc1nc(NCc2ccc(C(=O)Nc3ccccc3N)cc2)nc(NC2Cc3ccccc3C2)n1	inactive
Nc1nc(NCc2ccc(C(=O)Nc3ccccc3N)cc2)nc(N2CCOCC2)n1	inactive
Nc1ccccc1NC(=O)c1ccc(CNc2nc(NCCN3CCOCC3)nc(NC3Cc4ccccc4C3)n2)cc1	inactive
Nc1nc(NCc2ccc(C(=O)Nc3ccccc3N)cc2)nc(NC2CCCC2)n1	inactive

Molecular target: T3, Protein deacetylase HDAC6 (Homo sapiens) (UniProt Q9UBN7)
T3 sequence (whole entry): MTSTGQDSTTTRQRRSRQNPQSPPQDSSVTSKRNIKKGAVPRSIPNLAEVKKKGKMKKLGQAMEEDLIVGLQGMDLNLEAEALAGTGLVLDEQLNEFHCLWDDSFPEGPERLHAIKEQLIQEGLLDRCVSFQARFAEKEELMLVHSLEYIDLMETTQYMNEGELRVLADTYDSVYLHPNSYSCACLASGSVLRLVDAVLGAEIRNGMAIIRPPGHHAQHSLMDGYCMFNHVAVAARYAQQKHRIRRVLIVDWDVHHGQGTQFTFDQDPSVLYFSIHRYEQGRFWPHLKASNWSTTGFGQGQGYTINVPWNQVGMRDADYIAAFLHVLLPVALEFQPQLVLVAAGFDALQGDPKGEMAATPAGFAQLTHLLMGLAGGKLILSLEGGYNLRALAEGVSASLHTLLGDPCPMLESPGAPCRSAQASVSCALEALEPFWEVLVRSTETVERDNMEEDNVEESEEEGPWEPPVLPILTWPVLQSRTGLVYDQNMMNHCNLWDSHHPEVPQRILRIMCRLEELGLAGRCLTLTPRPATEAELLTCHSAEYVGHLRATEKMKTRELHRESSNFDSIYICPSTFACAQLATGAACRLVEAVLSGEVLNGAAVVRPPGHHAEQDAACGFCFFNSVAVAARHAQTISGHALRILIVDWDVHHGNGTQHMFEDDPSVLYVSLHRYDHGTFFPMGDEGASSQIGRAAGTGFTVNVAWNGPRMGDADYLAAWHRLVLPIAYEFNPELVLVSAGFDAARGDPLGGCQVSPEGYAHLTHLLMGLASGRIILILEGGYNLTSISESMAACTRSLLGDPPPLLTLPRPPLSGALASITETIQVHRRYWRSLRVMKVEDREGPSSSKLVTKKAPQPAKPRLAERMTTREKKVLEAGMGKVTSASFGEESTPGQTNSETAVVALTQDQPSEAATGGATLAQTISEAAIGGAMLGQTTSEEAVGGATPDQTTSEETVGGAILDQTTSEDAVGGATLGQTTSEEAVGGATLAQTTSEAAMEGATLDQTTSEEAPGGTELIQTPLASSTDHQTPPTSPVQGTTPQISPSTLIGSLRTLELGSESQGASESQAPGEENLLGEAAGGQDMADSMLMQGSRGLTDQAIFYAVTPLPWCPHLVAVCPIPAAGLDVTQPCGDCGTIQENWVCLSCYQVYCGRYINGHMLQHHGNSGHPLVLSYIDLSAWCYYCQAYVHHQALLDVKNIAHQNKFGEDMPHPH
Experiment: Activity against HDAC6
Details: not given

SMILES	Activity
Nc1nc(NCc2ccc(C(=O)Nc3ccccc3N)cc2)nc(NC2Cc3ccccc3C2)n1	inactive
Nc1nc(NCc2ccc(C(=O)Nc3ccccc3N)cc2)nc(N2CCOCC2)n1	inactive
Nc1ccccc1NC(=O)c1ccc(CNc2nc(NCCN3CCOCC3)nc(NC3Cc4ccccc4C3)n2)cc1	inactive
Nc1nc(NCc2ccc(C(=O)Nc3ccccc3N)cc2)nc(NC2CCCC2)n1	inactive

Molecular target: Histone deacetylase 2 (Homo sapiens) (UniProt Q92769)
Experiment: Activity against HDAC2
Details: not given

Histone deacetylase 2 (Homo sapiens), sequence (Q92769 whole entry): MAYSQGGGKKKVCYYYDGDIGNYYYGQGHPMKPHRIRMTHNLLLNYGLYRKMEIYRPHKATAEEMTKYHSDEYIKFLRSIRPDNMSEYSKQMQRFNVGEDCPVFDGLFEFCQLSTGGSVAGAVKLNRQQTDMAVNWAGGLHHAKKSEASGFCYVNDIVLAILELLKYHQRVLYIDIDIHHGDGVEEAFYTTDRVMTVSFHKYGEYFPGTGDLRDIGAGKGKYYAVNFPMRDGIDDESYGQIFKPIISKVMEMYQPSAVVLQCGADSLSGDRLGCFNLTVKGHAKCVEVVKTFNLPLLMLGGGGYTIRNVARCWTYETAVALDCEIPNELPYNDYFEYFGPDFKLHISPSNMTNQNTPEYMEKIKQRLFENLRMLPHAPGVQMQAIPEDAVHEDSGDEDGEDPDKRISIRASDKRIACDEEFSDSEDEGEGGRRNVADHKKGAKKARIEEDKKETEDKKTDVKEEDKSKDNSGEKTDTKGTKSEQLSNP

SMILES	Activity
Nc1nc(NCc2ccc(C(=O)Nc3ccccc3N)cc2)nc(NC2Cc3ccccc3C2)n1	Active
Nc1nc(NCc2ccc(C(=O)Nc3ccccc3N)cc2)nc(N2CCOCC2)n1	Active
Nc1ccccc1NC(=O)c1ccc(CNc2nc(NCCN3CCOCC3)nc(NC3Cc4ccccc4C3)n2)cc1	Active
Nc1nc(NCc2ccc(C(=O)Nc3ccccc3N)cc2)nc(NC2CCCC2)n1	Active

Molecular target: Histone deacetylase 5 (Homo sapiens) (UniProt Q9UQL6)
Experiment: Activity against HDAC5
Details: not given

Histone deacetylase 5 (Homo sapiens), sequence (Q9UQL6 whole entry): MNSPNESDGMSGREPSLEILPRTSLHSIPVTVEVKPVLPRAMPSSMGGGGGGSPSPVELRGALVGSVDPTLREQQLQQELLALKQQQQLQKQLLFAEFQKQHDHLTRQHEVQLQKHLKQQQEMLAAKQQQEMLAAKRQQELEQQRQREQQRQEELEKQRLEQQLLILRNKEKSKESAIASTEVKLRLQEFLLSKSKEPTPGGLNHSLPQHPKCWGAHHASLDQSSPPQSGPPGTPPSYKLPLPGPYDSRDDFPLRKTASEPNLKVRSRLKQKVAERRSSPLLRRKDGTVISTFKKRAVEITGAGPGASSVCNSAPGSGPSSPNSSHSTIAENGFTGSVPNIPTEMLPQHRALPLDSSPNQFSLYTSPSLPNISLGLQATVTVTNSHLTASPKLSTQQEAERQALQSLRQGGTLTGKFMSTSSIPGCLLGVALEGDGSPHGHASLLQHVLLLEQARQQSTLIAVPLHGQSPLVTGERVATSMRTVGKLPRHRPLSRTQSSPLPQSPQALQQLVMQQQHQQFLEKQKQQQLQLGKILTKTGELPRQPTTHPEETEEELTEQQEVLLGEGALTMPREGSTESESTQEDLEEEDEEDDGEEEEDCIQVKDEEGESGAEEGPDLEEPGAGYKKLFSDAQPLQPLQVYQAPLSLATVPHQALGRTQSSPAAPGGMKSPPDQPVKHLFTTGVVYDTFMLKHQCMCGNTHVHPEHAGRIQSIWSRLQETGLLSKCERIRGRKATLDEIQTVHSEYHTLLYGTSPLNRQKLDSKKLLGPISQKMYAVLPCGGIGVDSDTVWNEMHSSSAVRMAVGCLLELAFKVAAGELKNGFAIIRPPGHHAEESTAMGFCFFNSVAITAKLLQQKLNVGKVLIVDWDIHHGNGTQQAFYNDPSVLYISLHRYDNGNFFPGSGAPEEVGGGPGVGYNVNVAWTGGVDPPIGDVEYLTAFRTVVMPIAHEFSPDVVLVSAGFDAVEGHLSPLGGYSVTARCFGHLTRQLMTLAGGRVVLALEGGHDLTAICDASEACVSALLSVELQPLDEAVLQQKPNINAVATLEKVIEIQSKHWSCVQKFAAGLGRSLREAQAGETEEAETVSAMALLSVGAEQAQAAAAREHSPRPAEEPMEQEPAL

SMILES	Activity
Nc1nc(NCc2ccc(C(=O)Nc3ccccc3N)cc2)nc(NC2Cc3ccccc3C2)n1	inactive
Nc1nc(NCc2ccc(C(=O)Nc3ccccc3N)cc2)nc(N2CCOCC2)n1	inactive
Nc1ccccc1NC(=O)c1ccc(CNc2nc(NCCN3CCOCC3)nc(NC3Cc4ccccc4C3)n2)cc1	inactive
Nc1nc(NCc2ccc(C(=O)Nc3ccccc3N)cc2)nc(NC2CCCC2)n1	inactive
